# Where a SMILES comes first, the peptide text is derived from it. The star is where a group is joined. Cbz = O=C(OCc1ccccc1)*; CH2F = FC*
# What was measured:
# Format in all cases: cell-based, human
# OVCAR8 cells = assay: CCK-8 cell viability assay; conditions: for effect on cell viability: 100 nM for 4 days, FIG. 4D
# Experimental: (§1) Briefly, cells were cultured in 96-well plates and CCK-8 reagent was added to cells. After 2-h incubation at 37° C., absorbance was measured using a Bio-Rad plate reader at 460 nm. In vitro invasion was assayed using Matrigel invasion chamber available from Cell Biolabs Inc (San Diego, CA) according to manufacturer's protocol. Flow cytometry-based cell apoptosis was determined using Dead Cell Apoptosis Kits with Annexin V (Thermo Fisher, Cat #V13242) according to manufacturer's protocol. Lipid raft fractions were prepared using Minute™ Plasma Membrane-Derived Lipid Raft Isolation Kit (Invent Biotechnologies, Plymouth, MN) according to manufacturer's protocol.
# HEY cells = assay: CCK-8 cell viability assay; conditions: for effect on cell viability: 100 nM for 4 days, FIG. 4D
# Experimental: as §1
# [1] = test system: FAP-PRKDC co-localization in OVCAR8 cells; assay: Confocal immunofluorescence staining of FAP and PRKDC; conditions: 5 mM MBC for 1 day, FIG. 6E
# Experimental: (§2) Immunofluorescence staining: Cells were plated on coverslips for overnight and then fixed with 4% paraformaldehyde followed by permeabilization with 1% Triton X-100. Cells were washed three times with 1×PBS (Thermo Fisher, Cat #: 10010049). After brief blocking with 1% BSA, cells were incubated with anti-FAP mAb (Cat #sc-65398, Santa Cruz Biotechnology, Santa Cruz, CA) or anti-PRKDC polyclonal antibody (Cat #ab32566, Abcam) for 1 h and then with secondary antibody (Alexa Fluor® 488 and Alexa Fluor® 568) for another hour. Coverslips were mounted on […] using Permount solution (Cat #: P36961, Thermo Fisher) and cell fluorescence staining was viewed with confocal microscopy (Carl Zeiss Vision, LSM510). To locate lipid rafts, recombinant Cholera toxin subunit B conjugated with Alexa Fluor™ 647 (Cat #C34778, Thermo Fisher) was included during incubation with secondary antibody.
# (§3) Both FAP and PRKDC have been reported to be present in the lipid rafts with unknown function (13, 14). We investigated whether FAP-PRKDC interaction occurred in lipid rafts. We first isolated lipid fraction from HEY and OVCAR8 cells followed by western blot analysis to detect FAP and PRKDC. As well characterized lipid raft marker caveolin-1, both FAP and PRKDC were readily seen in lipid raft isolates (FIG. 6C). […]
# [2] = test system: FAP-PRKDC co-localization in HEY cells; assay: as above; conditions: 5 mM MBC for 1 day, FIG. 6E
# Experimental: as §2, §3
Compound,effect on cell viability (OVCAR8 cells; OVCAR8 cells),effect on cell viability (HEY cells; HEY cells),other results
Cc1c(-c2c(-c3ccc(F)o3)sc3ncnc(O[C@H](Cc4ccccc4OCc4ccnn4CC(F)(F)F)C(=O)O)c23)ccc(OCCN2CCN(C)CC2)c1Cl [S63845],much less inhibitory effect,much less inhibitory effect,–
"CC(C)[C@H](N)C(=O)N1CCC[C@H]1B(O)O [Alabostat, Talabostat]",–,–,"effect on survival (OVCAR8 cells; OVCAR8 cells, 1 mM Batimastat or 1 μM Talabostat alone or in combination, 4 days, FIG. 9): little effect; effect on survival (HEY cells; HEY cells, 1 mM Batimastat or 1 μM Talabostat alone or in combination, 4 days, FIG. 9): little effect"
CC[C@H](NC(=O)[C@H](C)NC)C(=O)N1C[C@@H](O)C[C@H]1Cc1c(-c2[nH]c3cc(F)ccc3c2C[C@@H]2C[C@H](O)CN2C(=O)[C@H](CC)NC(=O)[C@H](C)NC)[nH]c2cc(F)ccc12 [Birinapant],much less inhibitory effect,much less inhibitory effect,–
COC(=O)C[C@H](NC(=O)[C@H](C)NC(=O)[C@@H](NC(=O)OCc1ccccc1)C(C)C)C(=O)CF [zVAD] (Cbz-Val-Ala-Asp(OMe)-CH2F),–,–,"effect on FAP shRNA-led cell death (OVCAR8 cells; OVCAR8 cells transduced with FAP shRNA, 10 μM from one day post-infection, total 4 days, FIG. 2E): blocked anti-FAP shRNA-led cell death; effect on FAP shRNA-led cell death (HEY cells; HEY cells transduced with FAP shRNA, 10 μM from one day post-infection, total 4 days, FIG. 2E): blocked anti-FAP shRNA-led cell death"
COCCn1c2c([n+](Cc3cnccn3)c1C)C(=O)c1ccccc1C2=O [YM155],significant decrease in cell viability,significant decrease in cell viability,–
Methyl-beta-cyclodextrin [MBC],–,–,FAP-PRKDC co-localization after disruption of lipid rafts [1]: undetectable FAP-PRKDC co-localization; FAP-PRKDC co-localization after disruption of lipid rafts [2]: undetectable FAP-PRKDC co-localization
